Test results: patent US8338414B2, “Immunosuppressive agent and anti-tumor agent comprising heterocyclic compound as active ingredient” (Zenyaku Kogyo KabushikiKaisha, priority 2005, dated 2012)
Read-outs that look alike come from different tables or passages of the source.

Tests used:
[1] = test system: Salmonella typhimurium TA98, TA100, TA1535, TA1537 and Escherichia coli WP2uvrA; assay: Ames test; type: cell-based; details: preincubation method, with or without S-9, up to 5000 μg/flat plate
Description: Using 5 strains of Salmonella typhimurium TA98, TA100, TA1535, TA1537 and Escherichia coli WP2uvrA, the test substances (Compound 4, Compound 19, Compound 22 and Compound 24) were tested for their mutagenesis according to a preincubation method.

mouse spleen cells = assay: Proliferation inhibition assay for mouse spleen cells; type: cell-based; details: 72 h, 3 days, Alamar Blue
In short: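 C57BL/6N female mouse spleen cells (2×10^6 cells/mL) stimulated with Con A (3 μg/mL), LPS (100 μg/mL) or anti-mouse IgM (100 μg/mL) alongside serially diluted compounds, 3 days at 37° C, 5% CO2. Alamar Blue added for a further day; fluorescence read at ex 530/em 590 nm.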

[2] = test system: Rabbit synoviocytes HIG-82; assay: Inhibition assay for proliferation of rabbit synoviocyte; type: cell-based; details: Oryctolagus cuniculus, 72 h; HIG-82, 3 days, Alamar Blue
MCF-7 cells = assay: Proliferation inhibitory activity on solid tumor cells, MCF-7; type: cell-based; details: Homo sapiens, MCF7; 72 hours
Description: (§1) Used in the test were MCF-7 cells which were established from human breast cancer and were cultured routinely under the conditions of 37° C. and 5% CO2, in MEM medium supplemented with 10% fetal calf serum, 25 mM of HEPES and 0.1 mg/ml kanamycin. The MCF-7 cells in a logarithmic growth phase were treated with trypsin/EDTA to prepare single cell suspension adjusted to 4.0×10^4 cells/ml in MEM medium (supplemented with 10% fetal calf serum, 25 mM of HEPES and 0.1 mg/ml kanamycin). Test compounds were dissolved in DMSO and diluted with RPMI 1640 medium (supplemented with 10% fetal calf serum, 25 mM of HEPES and 0.1 mg/ml kanamycin) to a concentration of […] to 2.0×10^−9M.
(§2) The cell suspension was filled in a 96-wells microplate at a rate of 0.1 ml per well and was cultured for 24 hours so as to make the cells to adhere to the microplate. Then, it was added with 0.1 ml of the sample solution and cultured at 37° C. for 72 hours in 5% CO2.
(§3) 50% Growth inhibition concentrations (GI50 μM) were calculated from growth inhibitions at various sample concentrations.

Jurkat cells = assay: Proliferation inhibitory activity on hematologic neoplasm cells, Jurkat; type: cell-based; details: Homo sapiens, Jurkat, 72 h; 3 days, Alamar Blue
A549 lung cancer cells = assay: Proliferation inhibitory activity on solid tumor cells, A549; type: cell-based; details: Homo sapiens, 72 hours
Description: as §1, §2, §3
(§4) In the foregoing, when the cells other than MCF-7 are used, instead of adding 10% fetal bovine serum, the following media were used, and the following single cell suspensions were prepared. • PC-3 prostate cancer cells: 10% fetal bovine serum in F12K medium, single cell suspension of 2×10^4 cells; • A549 lung cancer cells: 10% fetal bovine serum in DMEM medium, single cell suspension of 1.5×10^4 cells; • WiDr colon cancer cells: 10% fetal bovine serum in MEM medium, single cell suspension of 3×10^4 cells; • B16F10 melanoma cells: 10% fetal bovine serum in RPMI 1640 medium, single cell suspension of 1×10^4 cells;

THP-1 cells = assay: Proliferation inhibitory activity on hematologic neoplasm cells, THP-1; type: cell-based; details: Homo sapiens, THP-1, 72 h; 3 days, Alamar Blue
[3] = test system: PC-3 prostate cancer cells; assay: Proliferation inhibitory activity on solid tumor cells, PC-3; type: cell-based; details: 72 hours
Description: as §1, §2, §3, §4

[4] = Test for measuring blood level; type: in vivo; details: mouse, serum; BDF1 male mice, 200 mg/kg oral, one hour after the administration
Description: A pharmacokinetic study was performed using 6 week-old BDF1 male mice. The test substances were mixed with hydroxylpropylcellulose (low-molecular weight form) [HPC(L)] in 2.5-fold of the drug weight, and dissolved in dichloromethane. The solvent was evaporated to dryness. To make the dosing formation, the residue was suspended in distilled water to prepare the drug level of 20 mg/mL. The test compounds were administered compulsorily and orally at a dose of 200 mg/kg to the mice that had been starved for 16 hours. One hour after the administration, blood was collected from the orbits of two mice to obtain serum. Internal standards solution and 1 ml of distilled water were added to 100 μL, of serum thus obtained, and then extracted with diethylether. The solvent was evaporated under vacuum, and the residue was resolved with eluent to provide samples for the HPLC measurement. HPLC was performed by using reversed-phase type column, and acetonitrile-phosphate buffer (pH 2.5) was used as the eluent. Using regression curves (Y=aX+b) obtained from the standards, the drug levels in the sample serum were calculated.

WiDr colon cancer cells = assay: Proliferation inhibitory activity on solid tumor cells, WiDr; type: cell-based; details: Homo sapiens, 72 hours
Description: as §1, §2, §3, §4

Daudi cells = assay: Proliferation inhibitory activity on hematologic neoplasm cells, Daudi; type: cell-based; details: Homo sapiens, Daudi, 72 h; 3 days, Alamar Blue
B16F10 melanoma cells = assay: Proliferation inhibitory activity on solid tumor cells, B16F10; type: cell-based; details: Mus musculus, B16-F10; 72 hours
Description: as §1, §2, §3, §4

HL 60 cells = assay: Proliferation inhibitory activity on hematologic neoplasm cells, HL60; type: cell-based; details: Homo sapiens, HL-60, 72 h; 3 days, Alamar Blue
Description: (§5) Daudi cells (5×10^5 cells/mL), Jurkat cells (5×10^5 cells/mL), THP-1 cells (5×10^5 cells/mL), U 937 cells (5×10^5 cells/mL), and HL 60 cells (5×10^5 cells/mL) suspended in RPMI 1640 medium (containing 10% fetal bovine serum, 10 mM HEPES, 1 mM pyruvic acid, 4.5 g/L glucose, 100 units/mL penicillin, and 0.1 mg/mL streptomycin) were seeded in 96 well plates at a capacity of 0.135 mL per well. Serial dilutions of test substances were added to respective wells at 15 μL/well, and incubated under conditions of carbon dioxide 5% at 37° C. for 3 days. Thereafter, Alamar Blue solution was added at 50 μL, and after incubation for one day, the fluorescence intensity at 590 nm using an excitation wavelength of 530 nm was determined by Cytoflour 4000 (Applied Biosystems).

[5] = test system: allogeneic mixed lymphocyte reaction; assay: Allogeneic mixed lymphocyte reaction; type: cell-based, mouse; details: Mus musculus, Lymphocyte; C57BL/6N spleen stimulator cells, BALB/c lymph node responder cells, 86 hours, BrdU
Description: Spleen cells prepared from C57BL/6N female mice (8-10 weeks old, purchased from Charles River Laboratories Japan Inc.) and peripheral lymph node mononuclear cells prepared from BALB/c female mice (8-10 weeks old, purchased from Charles River Laboratories Japan Inc.) were used as stimulator cells and responder cells, respectively. The respective cells were suspended in RPMI 1640 medium (containing 10% fetal bovine serum, 100 units/mL penicillin, and 0.1 mg/mL streptomycin) (with 2×10^6 cells/mL).

fulminant hepatitis = assay: Fulminant hepatitis model (galactosamine and LPS); type: in vivo, mouse; details: BALB/c mice, galactosamine 800 mg/kg and LPS 110 μg/kg i.p.
Description: BALB/c male mice (7 weeks old, purchased from Charles River Laboratories Japan Inc.) were used in the experiment. After having orally administered the test substances suspended in 5% HPC, galactosamine (800 mg/kg) and LPS (110 μg/kg) were intraperitoneally administered. Then, survival rates at 72 hours after administration were obtained.

U 937 cells = assay: Proliferation inhibitory activity on hematologic neoplasm cells, U937; type: cell-based; details: Homo sapiens, U-937, 72 h; 3 days, Alamar Blue
Description: as §5

[6] = test system: human peripheral blood mononuclear cells; assay: Proliferation inhibition assay for human peripheral blood mononuclear cells; type: cell-based; details: Homo sapiens, 72 h; PBMC, anti-CD3 and anti-CD28 antibody, 3 days, Alamar Blue
Description: 4 mL of blood collected from healthy subjects was placed on 3 mL of MonoPoly Resolving Medium, and after centrifugation, the mononuclear cell (PBMC) fraction was collected. After washing with saline, PBMC (1×10^5 cells/mL) was suspended in RPMI 1640 medium (containing 10% fetal bovine serum, 10 mM HEPES, 1 mM pyruvic acid, and 4.5 g/L glucose). Next, after having added an anti-CD28 antibody (1 μg/mL) to the suspension, they were seeded on an anti-human CD3 T cell activation plate (BD Bioscience) at a capacity of 0.135 mL per well. Then, serial dilutions of test substances were added to respective wells, and incubated under conditions of carbon dioxide 5% at a temperature 37° C. After 3 days, Alamar Blue solution was added at 50 μL per well, and after incubation for one day, a fluorescence intensity at 590 nm using an excitation wavelength of 530 nm was determined by Cytoflour 4000 (Applied Biosystems).

[7] = test system: human peripheral blood mononuclear cells; assay: Activation inhibition assay for human peripheral blood mononuclear cells (CD40L, CD69 expression); type: cell-based; details: PBMC, anti-CD3 + anti-CD28, 6 hours, flow cytometry
Description: In accordance with the method of Assay Example 2, PBMC (2×10^6 cells/mL) was isolated from human peripheral blood, suspended in RPMI 1640 medium (containing 10% fetal bovine serum, 10 mM HEPES, 1 mM pyruvic acid, and 4.5 g/L glucose), and seeded in wells of a 96 well plate at 0.225 mL per well. The test substances were added to respective wells, and then an anti-CD3 antibody (2 μg/mL) and an anti-CD28 antibody (1 μg/mL) were added. Then, after incubation under conditions of carbon dioxide 5% at a temperature 37° C. for 6 hours, the expressions of CD40L and CD69, activation markers, were analysed by flow cytometry. As a result, when the cells were stimulated by both an anti-CD3 antibody and an anti-CD28 antibody, CD40L was expressed on 14.4% of PBMC, which was also CD4 positive. However, the proportion of the cells which expressed CD40L decreased when the cells had been treated with test substances (Compound 4: 4.9%; Compound 20: 3.7%, Compound 24: 3.6%).

[8] = LPS 100 μg/mL, read-out: Inhibition of LPS response
[9] = anti-mouse IgM antibody 100 μg/mL, read-out: Inhibition of Anti-IgM antibody response
[10] = concanavalin A 3 μg/mL, read-out: Inhibition of Con A response

Row | Compound | melting point | concentration at 1 h [4] [ng/mL] | IC50 (mouse spleen cells; [8]) [nM] | IC50 (mouse spleen cells; [10]) [nM] | IC50 (Jurkat cells) [nM] | IC50 (THP-1 cells) [nM] | IC50 (Daudi cells) [nM] | also measured
1 | CC1(C)COCCN1c1cc(N2CCOCC2)nc(-n2c(C(F)F)nc3c(O)cccc32)n1 [Compound 22, 2-(2-Difluoromethyl-4-hydroxybenzimidazol-1-yl)-4-(3,3-dimethylmorpholino)-6-morpholinopyrimidine] | 204 to 206 °C |  | ≤ 1 | ≤ 1 |  |  |  | mutagenesis (colony number of reverse mutation) [1]: negative; IC50 (mouse spleen cells; [9]): ≤ 1 nM
2 | CC(=O)N1CCN(c2nc(N3CCOCC3)nc(-n3c(C(F)F)nc4ccccc43)n2)CC1 [Compound 28, 4-(4-acetylpiperazin-1-yl)-2-(2-difluoromethylbenzimidazol-1-yl)-6-morpholino-1,3,5-triazine] | 223 °C | 16100 | 1 to 100 | ≤ 1 | 1800 | 496 | 235 | IC50 [2]: 1110 nM; GI50 (MCF-7 cells): 1210 nM; GI50 (A549 lung cancer cells): 830 nM; GI50 [3]: 270 nM; GI50 (WiDr colon cancer cells): 1270 nM; GI50 (B16F10 melanoma cells): 2660 nM
3 | COc1cccc2c1nc(C(F)F)n2-c1nc(N2CCOCC2)cc(N2CCO[C@@H](C)[C@H]2C)n1 (relative stereo) [Compound 37, 2-(2-Difluoromethyl-4-methoxybenzimidazol-1-yl)-4-(cis-2,3-dimethylmorpholino)-6-morpholinopyrimidine] | 176 to 178 °C | 4760 |  |  |  |  |  | 
4 | CC1(C)CN(c2nc(N3CCOCC3)nc(-n3c(C(F)F)nc4c(Cl)cc(N)cc43)n2)CCO1 [Compound 19, 2-(6-Amino-4-chloro-2-difluoromethylbenzimidazol-1-yl)-4-(2,2-dimethylmorpholino)-6-morpholino-1,3,5-triazine] | 238 °C (dec.) |  | 1 to 100 | 1 to 100 | 1600 | 120 | 21.2 | mutagenesis (colony number of reverse mutation) [1]: negative
5 | OCC1CCCN1c1nc(N2CCOCC2)nc(-n2c(C(F)F)nc3c(O)cccc32)n1 (centres unmarked) [Compound 20, 2-(2-Difluoromethyl-4-hydroxybenzimidazol-1-yl)-4-(2-hydroxymethylpyrrolidin-1-yl)-6-morpholino-1,3,5-triazine] |  |  | ≤ 1 | ≤ 1 | 196 | 44 | 8.23 | IC50 [2]: 122 nM; IC50 (mouse spleen cells; [9]): ≤ 1 nM; IC50 (HL 60 cells): 74.5 nM; IC50 [5]: 136 nM; Survival Rate after 72 Hours (fulminant hepatitis; 50 mg/kg oral): 17%; Survival Rate after 72 Hours (fulminant hepatitis; 100 mg/kg oral): 72%; IC50 (U 937 cells): 252 nM; IC50 [6]: 8.15 nM; proportion of the cells which expressed CD40L ([7]; CD4 positive, 14.4% without test substance): 3.7%; proportion of CD4-positive cells which expressed CD69 ([7]; 28.8% without test substance): 10.1%; proportion of CD4-negative cells which expressed CD69 ([7]; 50.9% without test substance): 10.5%

Now from value to compound, other results behind:

Row | melting point | concentration at 1 h [4] [ng/mL] | Compound | IC50 (mouse spleen cells; [8]) [nM] | IC50 (mouse spleen cells; [10]) [nM] | IC50 (Jurkat cells) [nM] | IC50 (THP-1 cells) [nM] | IC50 (Daudi cells) [nM] | also measured
6 | 166 to 168 °C | 7170 | COc1cccc2c1nc(C(F)F)n2-c1nc(N2CCOCC2)cc(N2CCOC(C)(C)C2)n1 [Compound 36, 2-(2-Difluoromethyl-4-methoxybenzimidazol-1-yl)-4-(2,2-dimethylmorpholino)-6-morpholinopyrimidine] |  |  |  |  |  | 
7 | 114 to 116 °C | 5910 | CCOc1cccc2c1nc(C(F)F)n2-c1nc(N2CCOCC2)cc(N2CCOC(C)(C)C2)n1 [Compound 38, 2-(2-Difluoromethyl-4-ethoxybenzimidazol-1-yl)-4-(2,2-dimethylmorpholino)-6-morpholinopyrimidine] |  |  |  |  |  | 
